Laboratory results as given in patent US11332620B2, “Solution comprising a dye” (NOURYON CHEMICALS INTERNATIONAL B.V., priority 2018, dated 2022).

Assay: Dissolution of dye powder in CP/DMSO 80/20 mixture
Format: physicochemical
Settings: stirred 24 hours at room temperature

Dissolution in CP/DMSO 80/20 mixture (2.5 gram powder in 22.5 grams CP/DMSO 80/20, followed by 4 hours at 40° C.) | Dissolution in CP/DMSO 80/20 mixture (2.5 grams powder in 22.5 grams CP/DMSO 80/20) | SMILES
completely dissolved | – | CCN(CCO)c1ccc(N=Nc2ccc([N+](=O)[O-])cc2)cc1 [Disperse Red 1, N-Ethyl-N-(2-hydroxyethyl)-4-(4-nitrophenylazo)aniline]
– | completely dissolved | CC(=O)OCCN(CCC#N)c1ccc(N=Nc2nc3ccc([N+](=O)[O-])cc3s2)cc1 [Disperse Red 177, 2-((2-cyanoethyl)(4-((6-nitrobenzothiazol-2-yl)azo)phenyl)amino)ethyl acetate]
